Columns and labels:
[1] = tested on: Firmicutes CAG:176 thiolase (FcTHL, UniRef90 ID R6CZ24); assay: In vitro mass spectrometry end-point assay for 5-ASA acetylation; assay type: biochemical, Firmicutes bacterium CAG:176; settings: 6 hr at 37° C., 1 mM of each substrate, 50 μM enzyme
From the text: (§1) Having identified thiolase and acyl-CoA N-acetyltransferase superfamilies with potential 5-ASA-inactivating capabilities, we sought to biochemically confirm these predicted activities in vitro. […] We expressed the known NAT from Salmonella enterica, the candidate thiolase from Firmicutes CAG:176 (UniRef90 ID R6CZ24), and the acyl-CoA N-acetyltransferase from F. prausnitzii (UniRef90 ID C7H1G6) for further biochemical characterization (FIG. 14a). […] The known S. enterica enzyme served as a positive control (FIG. 14b).
(§2) Identities of the constructs were confirmed with DNA sequencing and then were transformed into E. coli BL21 strains for expression according to the standardized protocols from GenScript. All E. coli expression constructs were grown anaerobically in sealed Hungate tubes in Terrific Broth (VWR) supplemented with 5 mM MgSO4 and kanamycin (50 μg/mL) and were incubated at 37° C. overnight before dilution at 1:100 into fresh media the following morning. […]
(§3) The samples were injected into an Infinity Lab Poroshell120 Hilic column (2.1×100 mm 2.7 μm) at 25° C. […] For absolute quantification, all samples were normalized to the taurine internal standard and concentrations calculated against a standard curve.

[2] = human, in vivo; cited from earlier work
[3] = in vivo; cited from earlier work
[4] = tested on: Firmicutes CAG:176 thiolase (FcTHL); assay: Kinetic assay of 5-ASA acetylation; assay type: biochemical, Firmicutes bacterium CAG:176; settings: 5-ASA varied, 1 mM acetyl-CoA, 5 μM enzyme, 37° C.
Description: The samples were injected into an Infinity Lab Poroshell120 Hilic column (2.1×100 mm 2.7 μm) at 25° C. […] This was followed by a 3 second gradient to 40% mobile phase B. This was then followed by a 27 second gradient returning to 5% mobile phase A at a flow rate of 1200 μL/min. This flow rate and ratio was held for an additional 48 seconds. Additional column equilibration was carried out on a secondary pump for 117 seconds at 5% mobile phase A and a flow rate of 1000 μL/min. MS was conducted in negative ion mode using electrospray ionization. […] Other MS settings were as follows: heater temp 300° C., ESI nebulizer 45 psi, spray voltage 3.5 kV, acquisition time 100 ms/spectrum. […] For absolute quantification, all samples were normalized to the taurine internal standard and concentrations calculated against a standard curve.

[5] = tested on: fecal metabolome; assay: Fecal metabolome pre- and post-5-ASA in new users (IBDMDB); assay type: in vivo, human; settings: stool pre- vs post-5-ASA
Description: A portion of each selected stool sample (40-100 mg) and the entire volume of originating ethanol preservative were stored in 15-ml centrifuge tubes at −80° C. until all samples were collected. Samples were then thawed on ice and centrifuged (4° C., 5,000 g) for 5 min. Ethanol was evaporated using a gentle stream of nitrogen gas using a nitrogen evaporator (TurboVap LV; Biotage) and stored at −80° C. until all samples in the study had been dried. After a homogenization and vortexing process, the mixture was aliquoted and stored at −80° C. until LC-MS analyses.
A combination of four untargeted LC-MS methods were used to profile metabolites in the fecal homogenates, as previously published;^22 two methods that measure polar metabolites (a method that measures metabolites of intermediate polarity (for example, fatty acids and bile acids), and a lipid profiling method: 1) HILIC-pos (positive ion mode MS analyses of polar metabolites), 2) HILIC-neg (negative ion mode MS analysis of polar metabolites), 3) C18-neg (negative ion mode analysis of metabolites of intermediate polarity; for example, bile acids and free fatty acids), and 4) C8-pos. Lipids (polar and nonpolar). Additionally, pairs of pooled reference samples were inserted into the queue at intervals of approximately 20 samples for quality control and data standardization. […]
Raw LC-MS data were acquired to the data acquisition computer interfaced to each LC-MS system and then stored on a robust and redundant file storage system (Isilon Systems) accessed via the internal network at the Broad Institute. […] Identification of nontargeted metabolite LC-MS peaks was conducted by: i) matching measured retention times and masses to mixtures of reference metabolites analyzed in each batch; and ii) matching an internal database of >600 compounds that have been characterized using the Broad Institute methods. Temporal drift was monitored and normalized with the intensities of features measured in the pooled reference samples. […]

[6] = tested on: F. prausnitzii acyl-CoA N-acetyltransferase (FpGNAT, UniRef90 ID C7H1G6); assay: In vitro mass spectrometry end-point assay for 5-ASA acetylation; assay type: biochemical, Faecalibacterium prausnitzii; settings: 6 hr at 37° C., 1 mM of each substrate, 50 μM enzyme
From the text: as §1, §2, §3

[7] = in vivo; cited from earlier work; remark: listed apart in the source
[8] = tested on: colonic epithelial cells; settings: cited from earlier work
[9] = tested on: Firmicutes CAG:176 thiolase (FcTHL); assay: Promiscuity (substrate competition) assay of the thiolase with amine-containing xenobiotics; settings: 1 mM substrate, 5 μM enzyme, room temperature 1 hour
Description: Enzyme concentrations were calculated according to Beer's Law with extinction coefficients calculated by Benchling software based on the amino acid sequences of the putative enzymes. […] Reactions were conducted at 37° C. for 6 hours for the initial endpoint assay and room temperature for 1 hour for the promiscuity assay. Quenching/extraction for the promiscuity assay was with equal volumes of acetonitrile and methanol. Quenching/extraction for the end-point was one part sample and nine-parts extraction mix (75% acetonitrile:25% methanol v/v with 10 μM 1,2-^13C2-taurine from Cambridge Isotopes as an internal standard for quantification). Samples were vortexed and cooled to −20° C. and then centrifuged prior to LC-MS analysis.
For the promiscuity assays, mass spectrometry analyses were conducted using an LC-MS system composed of an Agilent 1260 Infinity HPLC (Agilent Technologies) coupled to a 6530 Accurate-Mass QTOF LC-MS (Agilent Technologies). The samples were injected into a 150×3 mm Hypersil GOLD aQ column (Thermo Scientific) at 30° C. […] Remaining identities were inferred using calculated masses with a mass detection tolerance of 10 ppm. Raw data from the LC-MS were analyzed using Agilent MassHunter Qualitative Analysis 10.0 software.

## Nc1ccc(O)c(C(=O)O)c1 [5-ASA, 5-aminosalicylic acid]
[1]
  conversion of 5-ASA to N-acetyl 5-ASA using acetyl-CoA: > 25%
[2]
  IBD patients who fail to respond or eventually lose response: over half
[3]
  intraluminal stool concentrations of 5-ASA (median): 30 mM
[4]; +/−0.46 mM
  Km: 1880 µM
[4]; +/−0.0199
  kcat: 0.00108 s⁻¹
[5]; 13 new users
  abundance of fecal 2-aminoadipate following 5-ASA treatment: reduced
[5]
  abundance of fecal nicotinic acid (NA) with 5-ASA: dropped
  abundance of fecal nicotinuric acid (NUA) with 5-ASA: dramatically increased
[6]
  conversion of 5-ASA to N-acetyl 5-ASA using acetyl-CoA: > 25%

## CC(=O)Nc1ccc(O)c(C(=O)O)c1 [N-acetyl 5-ASA]
[7]
  anti-inflammatory activity in placebo-controlled trials: lacks anti-inflammatory activity
[8]
  bioavailability to colonic epithelial cells: < 5%

## NNc1nncc2ccccc12 [hydralazine]
[9]
  acetylation of the compound by the thiolase: did not observe any acetylation

## CCN(CC)CCNC(=O)c1ccc(N)cc1 [procainamide]
[9]
  acetylation of the compound by the thiolase: did not observe any acetylation

Source: patent US20250146074A1 (The General Hospital Corporation, priority 2023, published 2025)
